According to patent publication US20110144077A1, “TREATMENT OF RETINAL DEGENERATION” (priority 2008, published 2011):
“Also recorded” adds a separate entry of the source.

Tests used:
[1] = tested on: photoreceptor cells in the outer nuclear layer (ONL); assay: Retinal explant culture, SNP induced apoptosis detected by TUNEL; type: cell-based, C57BL/6 mice
Description: Retinal explant culture: Eyes from postnatal day 10, C57BL/6 mice were removed and cleaned with 70% ethanol. The anterior segment, vitreous body, and sclera were removed and the retina mounted on Millicell nitrocellulose inserts (Millipore, Billerica, Mass.) photoreceptor-side down. Explants were cultured without retinal pigment epithelium (RPE) in 1.2 ml of R16 specialised media (from Dr. P. A. Ekstrom, Wallenberg Retina Centre, Lund University, Lund, Sweden) without additional serum. Treated explants were cultured in medium containing 300 μM of the nitric oxide donor SNP (sodium nitroprusside) for 24 h. Pre-treatment with norgestrel was for 1 hour.
(§1) Apoptosis detection by Terminal deoxynucleotidyl transferase-mediated biotinylated UTP nick end labeling (TUNEL): Retinal explants were fixed in 10% neutral buffered formalin overnight at 4° C., followed by cryoprotection in 25% sucrose overnight at 4° C. Frozen sections (7 μm) were incubated with terminal deoxynucleotidyl transferase (MSC, Dublin, Republic of Ireland) and fluorescein-12-dUTP (Roche, Lewes, UK) according to manufacturers' instructions at 37° C. for 1 h. Sections were mounted and viewed under a fluorescence microscope (Leica DM LB2; Leica, Nussloch, Germany) using an FITC filter.

photoreceptor cells = assay: Light damage model in vivo, TUNEL staining of ONL; design: species or system albino balb/c mice
Description: as §1
Light damage model: Balb/c mice were dark adapted for 18 h prior to exposure to constant light. Mice were injected intraperitoneally with 100 mg/kg of norgestrel 1 hour prior to light damage. Immediately prior to light exposure their pupils were dilated with 0.5% cyclopentolate under red light. Retinal light damage was induced by exposure to 2 h of cool white fluorescent light at an illumination of 5000 lux. Following exposure to constant light, animals were placed in the dark for 24 h then killed immediately by cervical dislocation.
TUNEL staining was performed as described above.

[2] = tested on: photoreceptor cells in the outer nuclear layer (ONL); assay: rd10 model of chronic retinal degeneration; type: in vivo, rd10 mouse
Description: Peanut agglutinin (PNA) staining: Eyes were fixed in 10% neutral buffered formalin overnight at 4° C., followed by cryoprotection in 25% sucrose overnight at 4° C. Frozen sections (7 μm) were blocked with 0.1% bovine serum albumin (BSA) in 0.1% tween/PBS for 30 minutes at room temperature. Sections were incubated with rhodamine conjugated PNA (Invitrogen, Dun Laoghaire, Ireland) for 20 minutes at room temperature as per manufacturers' instructions. Sections were mounted and viewed under a fluorescence microscope (Leica DM LB2; Leica, Nussloch, Germany) using a TRITC filter. Immunofluorescence: Eyes were fixed in 10% neutral buffered formalin overnight at 4° C., followed by cryoprotection in 25% sucrose overnight at 4° C. Frozen sections (7 μm) were blocked with 0.1% bovine serum albumin (BSA) in 0.1% tween/PBS for 1 hour at room temperature. Sections were incubated with anti-rhodopsin antibody (LAB VISION Corporation, Fremont, Calif., USA) overnight at 4° C. Sections were washed and incubated with FITC conjugated secondary mouse antibody (Dako, Glostrup, Denmark) for 1 hour at room temperature. Following further washes, sections were mounted and viewed under a fluorescence microscope (Leica DM LB2; Leica, Nussloch, Germany) using a FITC filter. […] It is a better model of the slow progression of typical human autosomal recessive RP than the acute light model as photoreceptor cells are lost over a period of weeks rather than days. Loss of photoreceptors in the rd10 mouse begins at approximately 2 weeks of age, with the peak of photoreceptor death occurring at postnatal day (P) 25.

[3] = compared to uninjected or vehicle injected controls

## C#CC1(O)CC[C@H]2[C@@H]3CCC4=CC(=O)CC[C@@H]4[C@H]3CC[C@@]21CC (mixture of isomers) [norgestrel]
[1]; ex vivo retinal explants, 300 μM SNP for 24 h, 1 hour norgestrel pre-treatment, increasing concentrations
  protection of photoreceptors from SNP induced apoptosis (TUNEL): protected from SNP induced apoptosis; also recorded: protects photoreceptive cells from SNP induced cell death
[1]; retinal explants, norgestrel alone at the highest concentration used
  toxicity to retinal cells: not toxic to retinal cells
Photoreceptor cells; 100 mg/kg IP, 1 hour before 2 h light damage
  protection of photoreceptors from light induced retinal damage / apoptosis: protects from the retinal damage observed; also recorded: Photoreceptors are protected
Photoreceptor cells; 100 mg/kg, single injection, post light damage
  duration of protection after a single injection: 72 h
Photoreceptor cells; central retina, 24 hours, 100 mg/kg
  protection from light induced cell death (TUNEL positive cells): approx 70%
[2]; 100 mg/kg IP every second day P18-P30, central retina
  protection of layers of photoreceptor nuclei, central retina: 1-2 layers
[2]; 100 mg/kg IP every second day P18-P30, peripheral retina
  protection of layers of photoreceptor nuclei, peripheral retina: 4-5 layers
[2]; 100 mg/kg injected daily, P25, central retina
  protection of layers of photoreceptor nuclei in the ONL, central retina: 3-4 layers
[2]; 100 mg/kg injected daily, P25, peripheral retina
  protection of layers in the ONL, peripheral retina: 3-4 layers
[2]; central retina, P25 and P30
  degeneration of central retina, photoreceptor nuclei remaining at P25 and P30 versus vehicle: degenerates more slowly
[2]; [3]
  PNA staining (cone photoreceptors) in the ONL: more cone cells are found
  rhodopsin immunofluorescent staining (rod photoreceptors) in the ONL: more rhodopsin positive cells remain
[2]; peripheral retina, P25 to P30
  degeneration of peripheral retina between P25 and P30 versus vehicle: degeneration of the peripheral retina virtually ceases
[2]; rd10, P25, every second day compared with daily
  protection with injection every second day versus daily: equally as protected
